Counter-ions that a name gives are not always drawn.
Legend:
fear-conditioned mice [1] = details: 7-day oral administration of 30 mg/kg; cited from earlier work
[2] = general conditions, death and weights during 7-day administration; assay type: in vivo, mouse; details: mice, 30 mg/kg oral for 7 days, compared with control group (0.5% MC)
Description: (§1) 10-week old male mice (C57BL/6NCrlCrlj, SPF grade) were purchased from Charles River Laboratories Japan. After 5-day quarantine period and subsequent 5-day acclimatization, weight measurement and observation of the general condition were conducted once a day.
A solid feed (ANG93G, Oriental Yeast Co., Ltd.) was placed in the feeder, and the mice were allowed to freely take the feed. The mice were allowed to freely drink water using a water bottle. […] The sample was administered so that the administration quantity of Vitamin K was 30 mg per kg in weight. The administration amount of liquid was calculated based on 10 ml/kg based using the weight on the date of administration.
The general conditions and death of a mouse were observed once a day before the administration. The weights were measured once a day before administration. […] After the mice allocated to the individual groups were placed in the conditioned-fear measurement system, electric stimulus was applied for fear conditioning and the akinesia time was measured simultaneously. […] After 7-day administration, the mice in the control group (0.5% MC) and in the vitamin K-administered groups were placed again in the conditioned-fear measurement system at 2 hours or 2 hours and 1 minute after the final administration, and the akinesia time in 4 minutes was measured under the condition without electric stimulus being applied. […]

[3] = MK-7 originating from fermented soybeans taken, compared with MK-4 taken directly (Ozaki et al. 2006); cited from earlier work
fear-conditioned mice [4] = assay: fear condition-induced akinesia time (conditioned-fear measurement system); assay type: in vivo, mouse; details: for akinesia time (for every 60 seconds) compared to the control group, two-way analysis of variance: 30 mg/kg oral for 7 days, P<0.01 (menaquinone-4), P<0.05 (menaquinone-7); for akinesia time (% of freezing), period from 0 to 60 seconds / akinesia time (% of freezing), period from 180 to 240 seconds: male C57BL/6 mice, 30 mg/kg oral forced feeding for 7 days, measured 2 h after final administration, mean of 10 mice
Excerpt: A stimulus from the outside enters the brain through the sense organs, and is sent to the amygdaloid body and the hippocampus-lateral septum system, where it is judged if the stimulus is beneficial or harmful. (The judgment is referred to as “biological value evaluation”). The information that has been evaluated is stored in the amygdaloid body and the hippocampus. At the same time, biological response occurs, and biological response is visually recognized by an observer as emotional expression. A human and an animal learn (acquire) information on the biological value evaluation they gained through their experiences. When they receive the same stimulus, the stimulus is compared in the amygdaloid body and the hippocampus-lateral septum system. The response that occurs at the time is referred to as “conditioned emotional response”. Assume that a rat or mouse is put into a specified box and an electric stimulus it hates is applied to the rat or mouse. […] The akinesia is referred to as “condition-induced akinesia”. Currently, an animal model for evaluating anti-anxiety and anti-depression effects is widely used while using decrease of akinesia time as an index.
Whether the tranquilizer of the invention has a similar effect as a commercially-available anti-depressant was examined using said anxiety evaluation system. Specifically, fear-conditioned mice were fed through forced feeding a sample consisting of vitamin K and medium, or a control sample consisting of medium only, respectively, for 7 days. The effect of each sample was examined on the akinesia time of mice.
Menaquinone-4 and menaquinone-7 as vitamin K to be used as an active ingredient of an anti-anxiety agent of the invention were purchased from Wako Pure Chemical Industries, Ltd. After the given amounts of menaquinone-4 or menaquinone-7 were weighed, they were suspended in 0.5% MC so that a certain concentration is acquired. The control group was fed with only the medium (0.5% MC).
as §1
A solid feed (ANG93G, Oriental Yeast Co., Ltd.) was placed in the feeder, and the mice were allowed to freely take the feed. The mice were allowed to freely drink water using a water bottle. The samples were orally administered through forced feeding in accordance specified method, using a disposable syringe made of polypropylene (manufactured by Terumo Corporation, Japan) attached with a disposable feeding needle for mouse (manufactured by Fuchigami kikai Ltd.). The sample was administered while it was stirred with a stirrer. The sample was administered so that the administration quantity of Vitamin K was 30 mg per kg in weight. The administration amount of liquid was calculated based on 10 ml/kg based using the weight on the date of administration.
The general conditions and death of a mouse were observed once a day before the administration. The weights were measured once a day before administration. A conditioned-fear measurement system (manufactured by ActiMetrics) was used for measuring electric stimulus and akinesia time. After the mice allocated to the individual groups were placed in the conditioned-fear measurement system, electric stimulus was applied for fear conditioning and the akinesia time was measured simultaneously. Electric stimulus of 0.3 mA for one second in every 15 seconds was applied for 240 seconds. Upon completion of the electric stimulus, the sample was administered to the mice. After 7-day administration, the mice in the control group (0.5% MC) and in the vitamin K-administered groups were placed again in the conditioned-fear measurement system at 2 hours or 2 hours and 1 minute after the final administration, and the akinesia time in 4 minutes was measured under the condition without electric stimulus being applied. […]

| Compound | condition-induced akinesia (fear-conditioned mice [1]) | weights through the administration period [2] | MK-4 in the brain [3] | akinesia time (for every 60 seconds) compared to the control group, two-way analysis of variance (fear-conditioned mice [4]) | akinesia time (% of freezing), period from 0 to 60 seconds (fear-conditioned mice [4]) [%] | akinesia time (% of freezing), period from 180 to 240 seconds (fear-conditioned mice [4]) [%] |
| --- | --- | --- | --- | --- | --- | --- |
| CCN(CC)C(=O)C1(c2ccccc2)CC1CN (stereo not shown) [milnacipran hydrochloride] | akinesia is alleviated |  |  |  |  |  |
| CC(C)=CCC/C(C)=C/CC/C(C)=C/CC/C(C)=C/CC/C(C)=C/CC/C(C)=C/CC/C(C)=C/CC1=C(C)C(=O)c2ccccc2C1=O [menaquinone-7] |  | remained substantially constant | increases in the brain more remarkably | significant decreases in the akinesia time were observed | 38.84 | 20.83 |
| CC(C)=CCC/C(C)=C/CC/C(C)=C/CC/C(C)=C/CC1=C(C)C(=O)c2ccccc2C1=O [menaquinone-4] |  | remained substantially constant |  | significant decreases in the akinesia time were observed | 31.99 | 22.29 |

From patent US7951844B2, “Tranquilizer and functional food” (J-Oil Mills, Inc., priority 2007, dated 2011)
